Test results from patent US20250388589A1, “TRICYCLIC HETEROCYCLIC DERIVATIVES, COMPOSITIONS AND USES THEREOF” (Danatlas Pharmaceuticals Co., Ltd., priority 2022, published 2025).

Key:
[1] = molecular target: hPARG (C-terminal His6-tag) (Homo sapiens (Human), UniProt Q86W56); test: PARG Enzymatic Activity Assay (HTRF); type: biochemical; conditions: hPARG 65 pM final, biotinylated-NAD ribosylated PARP1 8 nM final
Procedure, shortened: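 E. coli-expressed enzyme (65 pM final) preincubated 60 min RT with compounds (10-point 4-fold dilution, duplicate) in 50 mM Tris pH 7.4, 3 mM EDTA, 1 mM DTT, 50 mM KCl, 0.01% Tween 20. Biotinylated-NAD ribosylated PARP1 substrate (8 nM final) reacted 10 min RT; Eu-streptavidin/anti-6HIS-XL665 HTRF read 665/620 nm after 60 min. IC50 from 4-parameter Hill fit.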

Kuramochi cell line = test: Cell Viability Assay (Cell Titer-Glo, 7 days); type: cell-based; conditions: 168 h, Kuramochi cells, 7 days incubation, read-out: PARG Cell viability (IC50)
Procedure, shortened: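 Kuramochi cells in RPMI with 10% FBS, seeded at 400 cells/well, were treated with a 9-point 3-fold dilution series in duplicate for 7 days at 37 °C, 5% CO2. Viability by CellTiter-Glo luminescence, normalised to DMSO and medium-only controls; IC50 from 4-parameter Hill fit.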

hPARG (C-terminal His6-tag), sequence (Q86W56 whole entry): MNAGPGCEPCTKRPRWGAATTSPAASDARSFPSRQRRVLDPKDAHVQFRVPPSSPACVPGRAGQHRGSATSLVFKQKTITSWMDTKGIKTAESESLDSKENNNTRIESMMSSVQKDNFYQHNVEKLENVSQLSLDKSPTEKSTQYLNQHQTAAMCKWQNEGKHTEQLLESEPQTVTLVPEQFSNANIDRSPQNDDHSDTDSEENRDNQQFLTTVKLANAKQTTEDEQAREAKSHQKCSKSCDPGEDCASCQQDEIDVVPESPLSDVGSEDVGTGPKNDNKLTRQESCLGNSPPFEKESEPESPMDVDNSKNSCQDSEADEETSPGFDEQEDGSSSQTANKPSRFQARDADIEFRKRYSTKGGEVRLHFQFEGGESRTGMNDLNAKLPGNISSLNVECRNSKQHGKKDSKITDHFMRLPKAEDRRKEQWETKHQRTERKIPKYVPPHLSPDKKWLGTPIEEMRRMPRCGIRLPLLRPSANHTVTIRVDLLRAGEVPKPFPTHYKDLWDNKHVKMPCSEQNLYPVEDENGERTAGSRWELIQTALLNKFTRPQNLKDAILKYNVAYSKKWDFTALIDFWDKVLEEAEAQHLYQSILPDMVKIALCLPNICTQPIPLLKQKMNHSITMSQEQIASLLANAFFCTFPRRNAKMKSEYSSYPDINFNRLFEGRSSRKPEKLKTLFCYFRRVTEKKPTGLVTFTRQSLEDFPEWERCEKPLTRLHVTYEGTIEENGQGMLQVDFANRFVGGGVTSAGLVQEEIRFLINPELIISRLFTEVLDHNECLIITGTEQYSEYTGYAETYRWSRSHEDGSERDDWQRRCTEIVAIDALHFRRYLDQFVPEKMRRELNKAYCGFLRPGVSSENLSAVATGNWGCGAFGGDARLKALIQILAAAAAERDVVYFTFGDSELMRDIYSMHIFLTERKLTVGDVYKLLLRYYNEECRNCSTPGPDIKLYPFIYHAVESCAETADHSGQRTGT

Compound	IC50 [1]	IC50 (Kuramochi cell line)
N#CC1(NS(=O)(=O)c2ccc3c4c(C5CCN(C(=O)N6CCOCC6)CC5)ncnc4n(-c4nnc(C(F)F)s4)c3c2)CC1 [Example 140, N-(1-cyanocyclo-propyl)-9-(5-(difluoromethyl)-1,3,4-thiadiazol-2-yl)-4-(1-(morpholine-4-carbonyl)piperidin-4-yl)-9H-pyrimido [4,5-b]indole-7-sulfonamide]	< 100 nM	< 100 nM
N#CC1(NS(=O)(=O)c2ccc3c4c(N5CCC6(CCOC6)CC5)ncnc4n(-c4nnc(C(F)F)s4)c3c2)CC1 [Example 183, N-(1-Cyanocyclopropyl)-9-(5-(difluoromethyl)-1,3,4-thiadiazol-2-yl)-4-(2-oxa-8-azaspiro[4.5]decan-8-yl)-9H-pyrimido[4,5-b]indole-7-sulfonamide]	< 100 nM	< 100 nM
N#CC1(NS(=O)(=O)c2ccc3c4c(C5CCN(C(=O)[C@H]6CCCN6)CC5)ncnc4n(-c4nnc(C(F)F)s4)c3c2)CC1 [Example 125, (R)-N-(1-cyanocyclopropyl)-9-(5-(difluoromethyl)-1,3,4-thiadiazol-2-yl)-4-(1-prolylpiperidin-4-yl)-9H-pyrimido[4,5-b]indole-7-sulfonamide]	< 100 nM	100 to 1000 nM
CCN(CC)C1CCN(c2ncnc3c2c2ccc(S(=O)(=O)NC4(C#N)CC4)cc2n3-c2nnc(C(F)F)s2)C[C@@H]1F (stereo partly drawn) [Example 206, N-(1-Cyanocyclopropyl)-4-((3S)-4-(diethylamino)-3-fluoropiperidin-1-yl)-9-(5-(difluoromethyl)-1,3,4-thiadiazol-2-yl)-9H-pyrimido[4,5-b]indole-7-sulfonamide]	< 100 nM	< 100 nM
N#CC1(NS(=O)(=O)c2ccc3c4c(N5CCN6CCOC[C@H]6C5)ncnc4n(-c4nnc(C(F)F)s4)c3c2)CC1 [Example 161, (R)-N-(1-cyanocyclopropyl)-9-(5-(difluoromethyl)-1,3,4-thiadiazol-2-yl)-4-(hexahydropyrazino[2,1-c][1,4]oxazin-8(1H)-yl)-9H-pyrimido[4,5-b]indole-7-sulfonamide]	< 100 nM	< 100 nM
CN(CC(F)(F)F)C(=O)N1CCN(c2ncnc3c2c2ccc(S(=O)(=O)NC4(C#N)CC4)cc2n3-c2nnc(C(F)F)s2)CC1 [Example 42, 4-(7-(N-(1-Cyanocyclopropyl)sulfamoyl)-9-(5-(difluoromethyl)-1,3,4-thiadiazol-2-yl)-9H-pyrimido[4,5-b]indol-4-yl)-N-methyl-N-(2,2,2-trifluoroethyl)piperazine-1-carboxamide]	< 100 nM	< 100 nM
CN1CCC[C@H]1C(=O)N1CCC(c2ncnc3c2c2ccc(S(=O)(=O)NC4(C#N)CC4)cc2n3-c2nnc(C(F)F)s2)CC1 [Example 112, N-(1-cyanocyclopropyl)-9-(5-(difluoromethyl)-1,3,4-thiadiazol-2-yl)-4-(1-(methyl-L-prolyl)piperidin-4-yl)-9H-pyrimido[4,5-b]indole-7-sulfonamide]	< 100 nM	100 to 1000 nM
CN1CC=C(c2ncnc3c2c2ccc(S(=O)(=O)NC4(C#N)CC4)cc2n3-c2nnc(C(F)F)s2)CC1 [Example 77, N-(1-Cyanocyclopropyl)-9-(5-(difluoromethyl)-1,3,4-thiadiazol-2-yl)-4-(1-methyl-1,2,3,6-tetrahydropyridin-4-yl)-9H-pyrimido[4,5-b]indole-7-sulfonamide]	< 100 nM	< 100 nM
N#CC1(NS(=O)(=O)c2ccc3c4c(N5CCN(c6nccs6)CC5)ncnc4n(-c4nnc(C(F)F)s4)c3c2)CC1 [Example 16, N-(1-Cyanocyclopropyl)-9-(5-(difluoromethyl)-1,3,4-thiadiazol-2-yl)-4-(4-(thiazol-2-yl)piperazin-1-yl)-9H-pyrimido[4,5-b]indole-7-sulfonamide]	100 to 1000 nM	100 to 1000 nM
N#CC1(NS(=O)(=O)c2ccc3c4c(C5CCC(O)CC5)ncnc4n(-c4nnc(C(F)F)s4)c3c2)CC1 (stereo not shown) [Example 85, N-(1-Cyanocyclopropyl)-9-(5-(difluoromethyl)-1,3,4-thiadiazol-2-yl)-4-(4-hydroxycyclohexyl)-9H-pyrimido[4,5-b]indole-7-sulfonamide]	< 100 nM	< 100 nM
CC(=O)N1CCC(c2ncnc3c2c2ccc(S(=O)(=O)NC4(C#N)CC4)cc2n3-c2nnc(C(F)F)s2)CC1 [Example 105, 4-(1-acetylpiperidin-4-yl)-N-(1-cyanocyclopropyl)-9-(5-(difluoromethyl)-1,3,4-thiadiazol-2-yl)-9H-pyrimido[4,5-b]indole-7-sulfonamide]	< 100 nM	< 100 nM
CC(C)(C)[S+]([O-])N1CCN(c2ncnc3c2c2ccc(S(=O)(=O)NC4(C#N)CC4)cc2n3-c2nnc(C(F)F)s2)CC1 (stereo not shown) [Example 70, 4-(4-(Tert-butylsulfinyl)piperazin-1-yl)-N-(1-cyanocyclopropyl)-9-(5-(difluoromethyl)-1,3,4-thiadiazol-2-yl)-9H-pyrimido[4,5-b]indole-7-sulfonamide]	< 100 nM	< 100 nM
CC(C)S(=O)(=O)N1CCC(c2ncnc3c2c2ccc(S(=O)(=O)NC4(C#N)CC4)cc2n3-c2nnc(C(F)F)s2)CC1 [Example 123, N-(1-Cyanocyclopropyl)-9-(5-(difluoromethyl)-1,3,4-thiadiazol-2-yl)-4-(1-(isopropylsulfonyl)piperidin-4-yl)-9H-pyrimido[4,5-b]indole-7-sulfonamide]	< 100 nM	< 100 nM

The next lines start with results.

IC50 [1]	Compound	IC50 (Kuramochi cell line)
100 to 1000 nM	N#CC1(NS(=O)(=O)c2ccc3c4c(N5CC[C@@H](O)C5)ncnc4n(-c4nnc(C(F)F)s4)c3c2)CC1 [Example 54, (R)-N-(1-Cyanocyclopropyl)-9-(5-(difluoromethyl)-1,3,4-thiadiazol-2-yl)-4-(3-hydroxypyrrolidin-1-yl)-9H-pyrimido[4,5-b]indole-7-sulfonamide]	100 to 1000 nM
< 100 nM	CN1CCN(c2ncnc3c2c2ccc(S(=O)(=O)NC4(C#N)CC4)cc2n3-c2nnc(C(F)F)s2)C[C@@H]1CF [Example 203, (R)—N-(1-Cyanocyclopropyl)-9-(5-(difluoromethyl)-1,3,4-thiadiazol-2-yl)-4-(3-(fluoromethyl)-4-methylpiperazin-1-yl)-9H-pyrimido[4,5-b]indole-7-sulfonamide]	< 100 nM
< 100 nM	CCCN1CCN(c2ncnc3c2c2ccc(S(=O)(=O)NC4(C#N)CC4)cc2n3-c2nnc(C(F)F)s2)C[C@@H]1C [Example 157, (S)-N-(1-cyanocyclopropyl)-9-(5-(difluoromethyl)-1,3,4-thiadiazol-2-yl)-4-(3-methyl-4-propylpiperazin-1-yl)-9H-pyrimido[4,5-b]indole-7-sulfonamide]	< 100 nM
< 100 nM	CO[C@@H](C)C(=O)N1CCC(c2ncnc3c2c2ccc(S(=O)(=O)NC4(C#N)CC4)cc2n3-c2nnc(C(F)F)s2)CC1 [Example 108, (S)-N-(1-Cyanocyclopropyl)-9-(5-(difluoromethyl)-1,3,4-thiadiazol-2-yl)-4-(1-(2-methoxypropanoyl)piperidin-4-yl)-9H-pyrimido[4,5-b]indole-7-sulfonamide]	< 100 nM
< 100 nM	C[C@@H]1CN(C(=O)N(C)C)[C@@H](C)CN1c1ncnc2c1c1cc(F)c(S(=O)(=O)NC3(C#N)CC3)cc1n2-c1nnc(C(F)F)s1 [Example 45, (2S,5R)-4-(7-(N-(1-Cyanocyclopropyl)sulfamoyl)-9-(5-(difluoromethyl)-1,3,4-thiadiazol-2-yl)-6-fluoro-9H-pyrimido[4,5-b]indol-4-yl)-N,N,2,5-tetramethylpiperazine-1-carboxamide]	< 100 nM
< 100 nM	N#CC1(NS(=O)(=O)c2ccc3c4c(N5CCC(O)CC5)ncnc4n(-c4nnc(C(F)F)s4)c3c2)CC1 [Example 189, N-(1-Cyanocyclopropyl)-9-(5-(difluoromethyl)-1,3,4-thiadiazol-2-yl)-4-(4-hydroxypiperidin-1-yl)-9H-pyrimido[4,5-b]indole-7-sulfonamide]	< 100 nM
< 100 nM	CC(C)C(=O)N1C[C@H](C)N(c2ncnc3c2c2ccc(S(=O)(=O)NC4(C#N)CC4)cc2n3-c2nnc(C(F)F)s2)C[C@H]1C [Example 38, N-(1-Cyanocyclopropyl)-9-(5-(difluoromethyl)-1,3,4-thiadiazol-2-yl)-4-((2S,5R)-4-isobutyryl-2,5-dimethylpiperazin-1-yl)-9H-pyrimido[4,5-b]indole-7-sulfonamide]	100 to 1000 nM
< 100 nM	C[C@@H]1CN(c2ncnc3c2c2ccc(S(=O)(=O)NC4(C#N)CC4)cc2n3-c2nnc(C(F)F)s2)C[C@H](C)N1C(=O)C1CC1 [Example 29, N-(1-Cyanocyclopropyl)-4-((3S,5R)-4-(cyclopropanecarbonyl)-3,5-dimethylpiperazin-1-yl)-9-(5-(difluoromethyl)-1,3,4-thiadiazol-2-yl)-9H-pyrimido[4,5-b]indole-7-sulfonamide]	< 100 nM
< 100 nM	N#CC1(NS(=O)(=O)c2ccc3c4c(N5C[C@H]6COC[C@H]6C5)ncnc4n(-c4nnc(C(F)F)s4)c3c2)CC1 [Example 169, N-(1-Cyanocyclopropyl)-9-(5-(difluoromethyl)-1,3,4-thiadiazol-2-yl)-4-((3aR,6aS)-tetrahydro-1H-furo[3,4-c]pyrrol-5(3H)-yl)-9H-pyrimido[4,5-b]indole-7-sulfonamide]	< 100 nM
< 100 nM	C[C@@H]1CN(C)[C@@H](C)CN1c1ncnc2c1c1ccc(S(=O)(=O)NC3(C#N)CC3)cc1n2-c1nnc(C(F)F)s1 [Example 193, N-(1-Cyanocyclopropyl)-9-(5-(difluoromethyl)-1,3,4-thiadiazol-2-yl)-4-((2R,5S)-2,4,5-trimethylpiperazin-1-yl)-9H-pyrimido[4,5-b]indole-7-sulfonamide]	< 100 nM
